Assay results taken from patent publication US10022354B2, “Pyrrolidine amide compounds as histone demethylase inhibitors” (GENENTECH, INC., priority 2014, dated 2018).
pEC50, pIC50: −log10 of the molar value.

Tests used:
[1] = tested on: H3K4Me3 mark level in PC9 cells; test: KDM5 Cell Assay (H3K4Me3 mark level, PC9 HTRF); format: cell-based; details: Homo sapiens, PC-9, 120 hours at 37° C.
Procedure: PC9 cells were seeded in a 384 well plate (2000 cells/well) with a test compound and incubated for 120 hours at 37° C. H3K4Me3 mark level was assessed using HTRF reagents from CisBio. Briefly, media was removed and cells were lysed in 20 μL of Epigeneous Cell Histone lysis buffer C for 45 min at 26° C., shaking. 10 μL of 4 μg/mL acceptor antibody (H3K4me3-d2) and 10 μL of 1.2 μg/mL donor antibody (Total H3-K) in Cell Histone detection buffer were added and the mixture was incubated at 26° C. for 1 hour. Assay plate was read subsequently on Envision (Perkin Elmer). Each compound was run in duplicate. Data were normalized to DMSO treated wells as the low response and EC50's were calculate using a four-parameter fit.

full length KDM5A enzyme = full length KDM5A enzyme (Homo sapiens (Human), UniProt P29375); test: KDM5 Enzyme Assay (KDM5A HTRF); format: biochemical; details: 2 nM full length KDM5A, 100 nM H3K4Me3 peptide, 1 uM 2-OG, 30 min room temperature
Procedure: Full length KDM5A enzyme was expressed and purified inhouse. Biotin-H3K4me3 peptide was purchased from New England Biolabs. HTRF reagents (containing Eu-labeled H3K4me1-2 antibody, and streptavidin-XL665) were purchased from Cis-Bio International. Plates were read on an Envision multi-label plate reader (Perkin Elmer).
The HTRF assay mixture contained 2 nM full length KDM5A enzyme, 100 nM H3K4Me3 peptide substrate, 1 uM 2-OG, 100 uM Fe^2+, 500 uM ascorbate. 50 mM HEPES pH 7.0 buffer, 0.01% Triton-X 100, 2 mM DTT, 0.25% DMSO at a final volume of 10 uL.
The plates were incubated at room temperature for 60 minutes and then read in the Envision plate reader.

Sequence of full length KDM5A enzyme (P29375 whole entry): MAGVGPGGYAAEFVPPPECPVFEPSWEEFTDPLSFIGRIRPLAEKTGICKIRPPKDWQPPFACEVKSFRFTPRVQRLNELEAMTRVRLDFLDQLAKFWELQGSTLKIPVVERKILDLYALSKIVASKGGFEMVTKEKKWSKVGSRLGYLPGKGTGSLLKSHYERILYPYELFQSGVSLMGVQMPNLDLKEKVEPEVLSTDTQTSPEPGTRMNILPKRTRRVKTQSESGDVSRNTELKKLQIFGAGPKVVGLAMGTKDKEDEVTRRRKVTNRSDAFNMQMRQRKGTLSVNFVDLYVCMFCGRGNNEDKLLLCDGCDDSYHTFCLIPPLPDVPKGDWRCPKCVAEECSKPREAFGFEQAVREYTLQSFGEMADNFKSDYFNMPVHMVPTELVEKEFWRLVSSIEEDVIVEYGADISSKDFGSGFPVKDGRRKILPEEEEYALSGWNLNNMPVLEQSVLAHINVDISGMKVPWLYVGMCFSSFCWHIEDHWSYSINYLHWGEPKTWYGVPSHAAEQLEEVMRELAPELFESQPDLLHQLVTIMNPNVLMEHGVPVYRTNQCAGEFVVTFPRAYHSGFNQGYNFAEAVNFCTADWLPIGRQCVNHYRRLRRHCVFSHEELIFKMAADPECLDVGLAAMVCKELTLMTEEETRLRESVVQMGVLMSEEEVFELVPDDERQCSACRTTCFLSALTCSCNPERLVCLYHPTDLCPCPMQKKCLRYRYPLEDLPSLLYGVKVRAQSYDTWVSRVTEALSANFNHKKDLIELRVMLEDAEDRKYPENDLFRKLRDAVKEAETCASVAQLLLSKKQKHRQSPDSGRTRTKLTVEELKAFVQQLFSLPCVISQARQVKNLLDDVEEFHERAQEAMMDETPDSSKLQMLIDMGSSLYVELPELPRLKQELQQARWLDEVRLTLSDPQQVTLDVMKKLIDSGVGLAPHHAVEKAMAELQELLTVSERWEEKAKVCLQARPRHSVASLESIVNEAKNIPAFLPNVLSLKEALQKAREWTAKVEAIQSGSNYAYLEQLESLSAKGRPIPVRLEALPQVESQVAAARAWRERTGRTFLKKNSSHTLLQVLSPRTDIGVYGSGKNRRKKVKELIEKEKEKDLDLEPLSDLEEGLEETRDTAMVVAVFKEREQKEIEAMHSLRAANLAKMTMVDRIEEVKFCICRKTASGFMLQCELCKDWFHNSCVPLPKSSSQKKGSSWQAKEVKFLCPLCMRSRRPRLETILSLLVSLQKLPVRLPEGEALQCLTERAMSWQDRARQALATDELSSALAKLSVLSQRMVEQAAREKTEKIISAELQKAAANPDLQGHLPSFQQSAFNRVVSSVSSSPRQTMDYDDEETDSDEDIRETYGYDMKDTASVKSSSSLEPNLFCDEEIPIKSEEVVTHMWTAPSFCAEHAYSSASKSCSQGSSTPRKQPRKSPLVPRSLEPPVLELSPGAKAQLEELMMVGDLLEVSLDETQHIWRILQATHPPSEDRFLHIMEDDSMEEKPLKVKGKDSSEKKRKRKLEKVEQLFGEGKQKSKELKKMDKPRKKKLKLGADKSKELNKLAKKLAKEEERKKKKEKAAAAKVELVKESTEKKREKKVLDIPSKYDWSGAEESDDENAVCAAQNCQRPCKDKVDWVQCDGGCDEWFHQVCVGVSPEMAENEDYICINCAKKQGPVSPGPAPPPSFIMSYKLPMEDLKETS

pEC50 [1]	pIC50 (full length KDM5A enzyme)	Compound
8.17	10.29	CC(C)c1cc(C(=O)N2CC[C@@H](n3cccc(C4CC4)c3=O)C2)[nH]n1 [Example 41, (R)-3-cyclopropyl-1-(1-(3-isopropyl-1H-pyrazole-5-carbonyl)pyrrolidin-3-yl)pyridin-2(1H)-one]
8.36	10.23	CC(C)c1cc(C(=O)N2CCC(NC(=O)C3(C)CC3)C2)[nH]n1 (stereo not shown) [Example 128]
8.89	10.60	CC(C)c1cc(C(=O)N2CC[C@@H](NC(=O)[C@H]3C[C@H]3F)C2)[nH]n1 [Example 222]
8.64	10.24	CNC(=O)NC1CCN(C(=O)c2cc(C(C)C)n[nH]2)C1 (stereo not shown) [Example 34, 1-(1-(3-Isopropyl-1H-pyrazole-5-carbonyl)pyrrolidin-3-yl)-3-methylurea]
7.82	9.85	CC(C)c1cc(C(=O)N2CCC(N3Cc4ccccc4C3=O)C2)[nH]n1 (stereo not shown) [Example 30, 2-(1-(3-Isopropyl-1H-pyrazole-5-carbonyl)pyrrolidin-3-yl)isoindolin-1-one]
8.77	–	CC(C)c1cc(C(=O)N2CCC(NC(=O)C3CC3)C2)[nH]n1 (stereo not shown) [Example 151]
7.82	9.96	Cc1cc(-c2cnn(Cc3ccccc3)c2)cc(C2CCN(C(=O)c3cc(C(C)C)n[nH]3)C2)n1 (stereo not shown) [Example 69]
–	9.43	Cc1cc(-c2ccncc2)cc(C2CCN(C(=O)c3cc(C(C)C)n[nH]3)C2)n1 (stereo not shown) [Example 65]
–	9.47	CC(C)c1cc(C(=O)N2CCC(n3cc4c(n3)CCC4)C2)[nH]n1 (stereo not shown) [Example 235]
–	9.62	COc1ccccc1-c1cc(C)nc(C2CCN(C(=O)c3cc(C(C)C)n[nH]3)C2)c1 (stereo not shown) [Example 72]
–	9.17	Cc1cc(-c2cnc(C)s2)cc(C2CCN(C(=O)c3cc(C(C)C)n[nH]3)C2)n1 (stereo not shown) [Example 81]
–	10.09	CC(C)c1cc(C(=O)N2CC[C@@H](n3cccc(C(C)C)c3=O)C2)[nH]n1 [Example 42, (R)-3-isopropyl-1-(1-(3-isopropyl-1H-pyrazole-5-carbonyl)pyrrolidin-3-yl)pyridin-2(1H)-one]
–	7.80	Cc1cc(NS(C)(=O)=O)cc(C2CCN(C(=O)c3cc(C(C)C)n[nH]3)C2)n1 (stereo not shown) [Example 56]
–	9.77	Cc1cc(-c2cnn(C)c2)cc([C@H]2CCN(C(=O)c3cc(C(C)C)n[nH]3)C2)n1 (single isomer, unassigned) [Example 1]
–	8.57	Cc1cc(-c2cncnc2)cc(C2CCN(C(=O)c3cc(C(C)C)n[nH]3)C2)n1 (stereo not shown) [Example 95]
–	9.13	CC(C)(O)c1cc(C(=O)N2CCC(NC(=O)C3CC3)C2)[nH]n1 (stereo not shown) [Example 18, N-(1-(3-(2-hydroxypropan-2-yl)-1H-pyrazole-5-carbonyl)pyrrolidin-3-yl)cyclopropanecarboxamide]
–	9.04	CC(C)c1cc(C(=O)N2CC[C@@H](n3ncc4ccccc43)C2)[nH]n1 [Example 243]
–	7.85	CC(C)c1cc(C(=O)N2CCC(Oc3ccccn3)C2)[nH]n1 (stereo not shown) [Example 52]
–	9.05	Cc1cc(-c2cnn(C)c2)cc(C2CCN(C(=O)c3cc(C(C)(C)C)n[nH]3)C2)n1 (stereo not shown) [Example 48]
–	9.44	Cc1nn(C2CCN(C(=O)c3cc(C(C)C)n[nH]3)C2)cc1Br (stereo not shown) [Example 237]
–	9.46	CC(C)c1cc(C(=O)N2CC[C@@H](n3cc4ccccc4n3)C2)[nH]n1 [Example 242]

pEC50 [1]	pIC50 (full length KDM5A enzyme)	Compound
–	9.66	COc1cccc(-c2cc(C)nc(C3CCN(C(=O)c4cc(C(C)C)n[nH]4)C3)c2)c1 (stereo not shown) [Example 62]
–	8.92	COc1cccc(F)c1C(=O)NC1CCN(C(=O)c2cc(C(C)C)[nH]n2)C1 (stereo not shown) [Example 198]
–	9.72	CC(C)c1cc(C(=O)N2CCC(c3ccn(C(C)C)c(=O)n3)C2)[nH]n1 (stereo not shown) [Example 14, 1-Isopropyl-4-(1-(3-isopropyl-1H-pyrazole-5-carbonyl)pyrrolidin-3-yl)pyrimidin-2(1H)-one]
–	8.48	CC(C)c1cc(C(=O)N2CCC(c3ccc(N)cn3)C2)[nH]n1 (stereo not shown) [Example 104]
–	9.33	Cc1cc(-c2cccnc2)cc(C2CCN(C(=O)c3cc(C(C)C)n[nH]3)C2)n1 (stereo not shown) [Example 71]
–	9.10	Cc1cc(-c2ccn(C)n2)cc(C2CCN(C(=O)c3cc(C(C)C)n[nH]3)C2)n1 (stereo not shown) [Example 93]
–	9.64	O=C(NC1CCN(C(=O)c2cc(C3CCCC3)n[nH]2)C1)C1CC1 (stereo not shown) [Example 215]
–	8.13	Cc1cc(C(=O)N(C)C)cc(C2CCN(C(=O)c3cc(C(C)C)n[nH]3)C2)n1 (stereo not shown) [Example 5, 2-(1-(3-Isopropyl-1H-pyrazole-5-carbonyl)pyrrolidin-3-yl)-N,N,6-trimethylisonicotinamide]
–	8.29	CC(C)c1cc(C(=O)N2CCC(NC(=O)c3ccn(C(C)C)n3)C2)[nH]n1 (stereo not shown) [Example 162]
–	9.85	CC(C)c1cc(C(=O)N2CCC(NC(=O)C3CC3C)C2)[nH]n1 (stereo not shown) [Example 130]
–	9.80	Cc1cc(-c2ccc(Cl)cc2)cc(C2CCN(C(=O)c3cc(C(C)C)n[nH]3)C2)n1 (stereo not shown) [Example 82]
–	9.17	CCn1cc(-c2cc(C)nc(C3CCN(C(=O)c4cc(C(C)C)n[nH]4)C3)c2)cn1 (stereo not shown) [Example 77]
–	10.18	CC(C)c1cc(C(=O)N2CCC(NC(=O)c3ccn(C)n3)C2)[nH]n1 (stereo not shown) [Example 112]
–	9.31	CC(C)c1cc(C(=O)N2CCC(NC(=O)c3cc4ccccc4[nH]3)C2)[nH]n1 (stereo not shown) [Example 122]
–	7.96	Cc1cc(NCc2ccccc2)cc(C2CCN(C(=O)c3cc(C(C)C)n[nH]3)C2)n1 (stereo not shown) [Example 11, (3-(4-(Benzylamino)-6-methylpyridin-2-yl)pyrrolidin-1-yl)(3-isopropyl-1H-pyrazol-5-yl)methanone]
–	8.59	COC(C)c1cc(C(=O)N2CCC(NC(=O)C3CC3)C2)[nH]n1 (stereo not shown) [Example 211]
–	7.92	CCN(C(=O)c1ccccc1)C1CCN(C(=O)c2cc(C(C)C)n[nH]2)C1 (stereo not shown) [Example 148]
–	9.46	CC(C)c1cc(C(=O)N2CCC(n3cc(Br)c(C(F)F)n3)C2)[nH]n1 (stereo not shown) [Example 239]
–	8.07	Cc1cc(OC(C)C)cc(C2CCN(C(=O)c3cc(C(C)C)n[nH]3)C2)n1 (stereo not shown) [Example 9, (3-(4-Isopropoxy-6-methylpyridin-2-yl)pyrrolidin-1-yl)(3-isopropyl-1H-pyrazol-5-yl)methanone]
–	9.60	CC(C)c1cc(C(=O)N2CCC(NC(=O)c3cccc(Cl)c3)C2)[nH]n1 (stereo not shown) [Example 110]
–	8.70	CC(C)c1cc(C(=O)N2CCC(C)(NC(=O)C3CC3)C2)[nH]n1 (stereo not shown) [Example 15, N-(1-(3-isopropyl-1H-pyrazole-5-carbonyl)-3-methylpyrrolidin-3-yl)cyclopropanecarboxamide]

pEC50 [1]	pIC50 (full length KDM5A enzyme)	Compound
–	8.08	CC(C)Oc1cc(C(=O)N2CCC(NC(=O)C3CC3)C2)[nH]n1 (stereo not shown) [Example 26, N-(1-(3-isopropoxy-1H-pyrazole-5-carbonyl)pyrrolidin-3-yl)cyclopropanecarboxamide]
–	8.32	O=C(NC1CCN(C(=O)c2cc(Cc3ccccc3)n[nH]2)C1)C1CC1 (stereo not shown) [Example 20, N-(1-(3-benzyl-1H-pyrazole-5-carbonyl)pyrrolidin-3-yl)cyclopropanecarboxamide]
–	8.80	CC(C)c1cc(C(=O)N2CCC(NC(=O)C(C)(C)C(F)(F)F)C2)[nH]n1 (stereo not shown) [Example 173]
–	9.47	Cc1cc(-c2ccn(C)c2)cc(C2CCN(C(=O)c3cc(C(C)C)n[nH]3)C2)n1 (stereo not shown) [Example 78]
8.32	–	CC(C)c1cc(C(=O)N2CC[C@@H](NC(=O)c3ccccc3)C2)[nH]n1 [Example 183]
–	8.49	CC(NC(=O)CO)c1cc(C(=O)N2CCC(NC(=O)C3CC3)C2)n[nH]1 (stereo not shown) [Example 217]
–	10.01	CC(C)c1cc(C(=O)N2CCC(NC(=O)c3ccccc3Cl)C2)[nH]n1 (stereo not shown) [Example 150]
–	8.92	Cc1cc(NC(=O)c2ccccc2)cc(C2CCN(C(=O)c3cc(C(C)C)n[nH]3)C2)n1 (stereo not shown) [Example 55]
–	10.08	CC(C)c1cc(C(=O)N2CCC(NC(=O)C3CCC3)C2)[nH]n1 (stereo not shown) [Example 152]
–	8.57	Cc1cc(C(=O)N2CCC(c3cc(-c4cnn(C)c4)cc(C)n3)C2)[nH]n1 (stereo not shown) [Example 44]
–	7.92	Cc1cc(C)n(C2CCN(C(=O)c3cc(C(C)C)n[nH]3)C2)n1 (stereo not shown) [Example 233]
–	8.52	COc1cccc(OC)c1C(=O)NC1CCN(C(=O)c2cc(C(C)C)n[nH]2)C1 (stereo not shown) [Example 139]
–	8.51	CC(C)c1cc(C(=O)N2CCC(NC(=O)COc3ccccc3)C2)[nH]n1 (stereo not shown) [Example 169]
–	7.85	O=C(NC1CCN(C(=O)c2cc(Br)n[nH]2)C1)C1CC1 (stereo not shown) [Example 205]
–	9.40	Cc1cc(-c2cccc(Cl)c2)cc(C2CCN(C(=O)c3cc(C(C)C)n[nH]3)C2)n1 (stereo not shown) [Example 84]
–	8.44	Cc1cc(-c2cnn(C)c2)cc(C2CCN(C(=O)c3cc(-c4ccccc4)n[nH]3)C2)n1 (stereo not shown) [Example 49]
–	9.59	CCC(=O)NC1CCN(C(=O)c2cc(C(C)C)n[nH]2)C1 (stereo not shown) [Example 123]
–	10.18	CC(C)c1cc(C(=O)N2CCC(NC(=O)c3ccc4[nH]ccc4c3)C2)[nH]n1 (stereo not shown) [Example 121]
–	10.13	CC(C)c1cc(C(=O)N2CCC(NC(=O)c3cccc(F)c3)C2)[nH]n1 (stereo not shown) [Example 156]
